Test: Serum fatty acid metabolomics (UPLC-MS/MS), feeding study
Procedure: This study examined global metabolic profiles in six dolphins (“Group A dolphins”). The dolphins lived in netted enclosures within San Diego Bay. The dolphins started on a 100% capelin diet. Group A dolphins were fed one-third of their daily diet in the morning after their routine overnight fast and 2h postprandial, in-water, and trained blood samples were drawn (typically near 10:00 a.m.). An additional four dolphins (“Group C dolphins”) were fed the capelin diet.
Two hour post-prandial samples were collected from the dolphins at baseline (week 0) and at four time points following the switch to the modified diet: 6, 12, 18, and 24 weeks. Routine monthly samples collected from four reference dolphins that were housed in the same environment as the Group A dolphins were assessed for glucose, triglycerides, ferritin, and percent serum fatty acids.
Sample Preparation: Samples were prepared using the automated MicroLab STAR® system from Hamilton Company. Several recovery standards were added prior to the first step in the extraction process for QC purposes. Proteins were precipitated with methanol under vigorous shaking for 2 min (Glen Mills GenoGrinder 2000) followed by centrifugation. The resulting extract was divided into five fractions: two for analysis by two separate reverse phase (RP)/UPLC-MS/MS methods with positive ion mode electrospray ionization (ESI), one for analysis by RP/UPLC-MS/MS with negative ion mode ESI, one for analysis by HILIC/UPLC-MS/MS with negative ion mode ESI, and one sample was reserved. Samples were placed briefly on a TurboVap® (Zymark) to remove the organic solvent. The sample extracts were stored overnight under nitrogen before preparation for analysis.
Ultrahigh Performance Liquid Chromatography-Tandem Mass Spectroscopy (UPLC-MS/[…]): Each of four methods utilized a Waters ACQUITY ultra-performance liquid chromatography (UPLC) and a Thermo Scientific Q-Exactive high resolution/accurate mass spectrometer interfaced with a heated electrospray ionization (HESI-II) source and Orbitrap mass analyzer operated at 35,000 mass resolution. A sample extract was dried, then reconstituted in solvents compatible to each of the four methods. Each reconstitution solvent contained a series of standards at fixed concentrations to ensure injection and chromatographic consistency. A first aliquot was analyzed using acidic positive ion conditions, chromatographically optimized for more hydrophilic compounds. In this method, the extract was gradient eluted from a C18 column (Waters UPLC BEH C18-2. 1×100 mm, 1.7 μm) using water and methanol, containing 0.05% perfluoropentanoic acid (PFPA) and 0.1% formic acid (FA). A second aliquot was also analyzed using acidic positive ion conditions, however it was chromatographically optimized for more hydrophobic compounds. In this method, the extract was gradient eluted from the same afore mentioned C18 column using methanol, acetonitrile, water, 0.05% PFPA and 0.01% FA and was operated at an overall higher organic content. A third aliquot was analyzed using basic negative ion optimized conditions using a separate dedicated C 18 column. The basic extracts were gradient eluted from the column using methanol and water, however with 6.5 mM Ammonium Bicarbonate at pH 8. […] The MS analysis alternated between MS and data-dependent MSn scans using dynamic exclusion. The scan range varied slighted between methods but covered 70-1000 m/z.
Data Extraction and Compound Identification: Raw data was extracted, peak-identified and QC processed using Metabolon's hardware and software. The systems were based on a web-service platform utilizing Microsoft's .NET technologies, which ran on high-performance application servers and fiber-channel storage arrays in clusters to provide active failover and load-balancing. Compounds were identified by comparison to library entries of purified standards or recurrent unknown entities.

[1] = Group A dolphins, modified diet, proportional to value at outset of study
[2] = bottlenose dolphin (Tursiops truncatus), in vivo, 6 weeks
[3] = bottlenose dolphin (Tursiops truncatus), in vivo, 12 weeks
[4] = bottlenose dolphin (Tursiops truncatus), in vivo, 18 weeks
[5] = bottlenose dolphin (Tursiops truncatus), in vivo, 24 weeks

serum concentration 6 wk / 0 wk (in vivo)	serum concentration 12 wk / 0 wk (in vivo)	serum concentration 18 wk / 0 wk (in vivo)	serum concentration 24 wk / 0 wk (in vivo)	Compound	other results
1.49	1.67	1.08	1.11	CCCCCCC=CCCCC(=O)O [5-dodecenoate (12:ln7), 5-dodecenoate]	–
1.12	1.38	1.35	0.87	CCCCCCC=CCCCCCCCCC(=O)O [10-heptadecenoate (17:ln7), 10-heptadecenoate]	–
1.05	1.28	1.17	0.8	CCCCCCCCC=CCCCCCCCCC(=O)O [10-nonadecenoate (19:ln9), 10-nonadecenoate]	–
1.51	2.17	2.82	1.73	CCCCC/C=C\C/C=C\C/C=C\C/C=C\CCCCCC(=O)O [adrenate (22:4n6), all-cis-7,10,13,16-docosatetraenoic acid]	–
–	–	–	–	CCCCCC(=O)O [caproate (6:0), caproate]	serum concentration 6 wk / 0 wk [1]: 0.98; serum concentration 12 wk / 0 wk [1]: 1.01; serum concentration 18 wk / 0 wk [1]: 0.92; serum concentration 24 wk / 0 wk [1]: 0.76
–	–	–	–	CCCCCCCC(=O)O [caprylate (8:0), caprylate]	serum concentration 6 wk / 0 wk [1]: 1.1; serum concentration 12 wk / 0 wk [1]: 1.07; serum concentration 18 wk / 0 wk [1]: 0.96; serum concentration 24 wk / 0 wk [1]: 1.12
0.9	1.12	–	0.73	CCCCC/C=C\C/C=C\CCCCCCCCCC(=O)O [dihomo-linoleate (20:2n6), dihomo-linoleate]	–
0.85	1.08	0.99	0.54	CCCCC/C=C\C/C=C\CCCCCCCCCCCC(=O)O [docosadienoate (22:2n6), docosadienoate]	–
–	–	–	–	CC/C=C\C/C=C\C/C=C\C/C=C\C/C=C\C/C=C\CCC(=O)O [docosahexaenoate (DHA; 22:6n3), docosahexaenoate]	serum concentration 6 wk / 0 wk [1]: 1.05; serum concentration 12 wk / 0 wk [1]: 1.23; serum concentration 18 wk / 0 wk [1]: 1.06; serum concentration 24 wk / 0 wk [1]: 0.74
1.68	2.5	2.33	2.09	CCCCC/C=C\C/C=C\C/C=C\C/C=C\C/C=C\CCC(=O)O [docosapentaenoate (n6 DPA; 22:5n6), all-cis-4,7,10,13,16-docosapentaenoic acid]	–
1.08	2.06	1.96	1.06	CC/C=C\C/C=C\C/C=C\CCCCCCCCCCCC(=O)O [docosatrienoate (22:3n3), docosatrienoate]	–
–	–	–	–	CC/C=C\C/C=C\C/C=C\C/C=C\C/C=C\CCCC(=O)O [eicosapentaenoate (EPA; 20:5n3), eicosapentaenoate]	serum concentration 6 wk / 0 wk [2]: 0.88; serum concentration 12 wk / 0 wk [3]: 0.99; serum concentration 18 wk / 0 wk [4]: 0.88; serum concentration 24 wk / 0 wk [5]: 0.57
0.71	0.81	0.68	0.45	CCCCCCCC/C=C\CCCCCCCCCCCC(=O)O [erucate (22:ln9), erucate]	–
–	–	–	–	CCCCCCC(=O)O [heptanoate (7:0), heptanoate]	serum concentration 6 wk / 0 wk [1]: 1.42; serum concentration 12 wk / 0 wk [1]: 1.02; serum concentration 18 wk / 0 wk [1]: 1.23; serum concentration 24 wk / 0 wk [1]: 1.21
–	–	–	–	CCCCC/C=C\C/C=C\CCCCCCCC(=O)O [linoleate (18:2n6), linoleate]	serum concentration 6 wk / 0 wk [2]: 0.87; serum concentration 12 wk / 0 wk [3]: 0.93; serum concentration 18 wk / 0 wk [4]: 0.76; serum concentration 24 wk / 0 wk [5]: 0.66
–	–	–	–	CCCCCCCCCCCCCC(=O)O [myristate (14:0), myristate]	serum concentration 6 wk / 0 wk [1]: 0.8; serum concentration 12 wk / 0 wk [1]: 0.87; serum concentration 18 wk / 0 wk [1]: 0.74; serum concentration 24 wk / 0 wk [1]: 0.58
1.45	1.55	0.97	1.02	CCCC/C=C\CCCCCCCC(=O)O [myristoleate (14:ln5), myristoleate]	–
0.71	1.41	0.74	0.62	CCCCCCCC/C=C\CCCCCCCCCCCCCC(=O)O [nervonate (24:ln9)*, nervonate]	–
1.22	1.65	1.79	1.28	CCCCCCCCCCCCCCCCCCC(=O)O [nonadecanoate (19:0), nonadecanoate]	–
0.85	0.99	0.76	0.54	CCCCCC/C=C\CCCCCCCC(=O)O [palmitoleate (16:ln7), palmitoleate]	–
1.01	1.27	1.42	0.97	CCCCCCCCCCCCCCC(=O)O [pentadecanoate (15:0), pentadecanoate]	–
–	–	–	–	CCCCCCCCC(=O)O [perlargonate (9:0), nonanoic acid]	serum concentration 6 wk / 0 wk [2]: 1.26; serum concentration 18 wk / 0 wk [4]: 1.56; serum concentration 24 wk / 0 wk [5]: 1.41
–	0.71	0.61	0.58	CC/C=C\C/C=C\C/C=C\C/C=C\CCCCC(=O)O [stearidonate (18:4n3), stearidonate]	–
1.13	1.37	1.27	0.78	docosapentaenoate [docosapentaenoate (n3 DPA; 22:5n3)]	–
0.72	0.81	0.72	0.43	eicosenoate [eicosenoate (20:1)]	–
1.13	1.1	0.97	0.98	linolenate	–
0.98	1.04	0.84	0.64	oleate/vaccenate [oleate/vaccenate (18:1)]	–

Compound	serum concentration 6 wk / 0 wk (in vivo)	serum concentration 12 wk / 0 wk (in vivo)	serum concentration 18 wk / 0 wk (in vivo)	serum concentration 24 wk / 0 wk (in vivo)	other results
C=CCCCCCCCCC(=O)O [10-undecenoate (1 l:ln1), 10-undecenoate]	1.41	1.54	1.22	1.75	–
